According to US20250032524A1, “BROAD SPECTRUM AMINOGLYCOSIDES AND USES THEREOF” (REVAGENIX, INC., priority 2022, published 2025):
Read-outs that look alike come from different tables or passages of the source.

Tests used:
Assay type in all cases: cell-based
A. baumannii = experiment: MIC broth microdilution (CLSI); conditions: Acinetobacter baumannii
In short: (§1)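 CLSI broth microdilution; cation-adjusted MHB; inoculum 5×10^5 CFU/mL final; 2-fold compound series; 35° C., ambient air, 18-24 h. MIC = lowest conc. with no visible growth (OD 600 nm<0.05). QC strains and neomycin run per CLSI.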

E. cloacae = experiment: MIC broth microdilution (CLSI); conditions: Enterobacter cloacae; strain AECL1089, MDR Clinical isolate (CDC CRE panel), CDC AR Bank 0154
In short: as §1

E. coli = experiment: MIC broth microdilution (CLSI); conditions: Escherichia coli
In short: as §1

K. aerogenes = experiment: MIC broth microdilution (CLSI); conditions: Klebsiella aerogenes; strain AEAE1042, MDR Clinical isolate (CDC CRE panel), CDC AR Bank 0161
In short: as §1

K. pneumoniae = experiment: MIC broth microdilution (CLSI)
In short: as §1

P. aeruginosa [1] = experiment: MIC broth microdilution (CLSI); conditions: Pseudomonas aeruginosa
In short: as §1

[2] = test system: A. baumannii-calcoaceticus; experiment: Antibacterial surveillance of clinical isolates (MIC50/90); conditions: 100 isolates
Protocol: (§2) Minimum inhibitory concentrations for representative example compounds herein were determined by a broth microdilution method in accordance with the Clinical and Laboratory Standards Institute (CLSI) guidelines. In brief, organism suspensions were adjusted to a 0.5 McFarland standard to yield a final inoculum between 3×10^5 and 7×10^5 colony-forming units (CFU)/mL. The inoculum was prepared by suspension of a colony from an agar plate that was prepared the previous day. Compound dilutions and inoculum were prepared in sterile, cation adjusted Mueller-Hinton Broth (Beckton Dickinson).
(§3) Bacteria were suspended in sterile saline and added to each assay plate to obtain a final concentration of 5×10^5 CFU/mL. An inoculum volume of 100 μL was added to wells containing 100 μL of broth with 2-fold serial dilutions of the test compound. All inoculated microdilution trays were incubated in ambient air at 35° C. for 18-24 hours. Following incubation, the lowest concentration of the compound that prevented visible growth (OD 600 nm<0.05) is recorded was the MIC. […] Performance of the assay was monitored by the use of laboratory quality-control strains and a standard compound with a defined MIC spectrum (neomycin), in accordance with CLSI guidelines.
(§4) Several compounds of the disclosure (Compound 1, 2, and 3) were further evaluated against several hundred bacterial isolates (isolated in the United States and Europe, 1:1) selected from the SENTRY Antimicrobial Surveillance Program (JMI Laboratories, North Liberty, Iowa). The set of clinical isolates included 300 randomly selected Enterobacterales, 103 randomly selected P. aeruginosa, 100 randomly selected A. baumannii-calcoaceticus, 20 randomly selected Methicillin-sensitive S. aureus (MSSA), and 30 randomly selected Methicillin-resistant S. aureus (MRSA). In addition, 101 Enterobacterales and 50 P. aeruginosa isolates with genetically defined mechanisms of aminoglycoside resistance were included. The MIC values at which ≥50% (MIC50) and ≥90% (MIC90) of isolates within a given set are inhibited were determined for each compound against each set of organisms.

[3] = test system: AG-resistant Enterobacterales; experiment: as above
Protocol: as §2, §3, §4

[4] = test system: AG-resistant P. aeruginosa; experiment: as above; conditions: Pseudomonas aeruginosa, 50 isolates with defined aminoglycoside resistance
Protocol: as §2, §3, §4

Enterobacterales = experiment: as above
Protocol: as §2, §3, §4

[5] = test system: Methicillin-resistant S. aureus (MRSA); experiment: as above; conditions: Staphylococcus aureus, MRSA, 30 isolates
Protocol: as §2, §3, §4

[6] = test system: Methicillin-sensitive S. aureus (MSSA); experiment: as above; conditions: Staphylococcus aureus, MSSA, 20 isolates
Protocol: as §2, §3, §4

P. aeruginosa [7] = experiment: as above; conditions: Pseudomonas aeruginosa, 103 isolates
Protocol: as §2, §3, §4

[8] = test system: clinical isolates of multi-drug resistant bacterial pathogens including A. baumannii, MRSA, P. aeruginosa, and CRE; experiment: MIC secondary panel, overall statement; conditions: read-out: minimum inhibitory concentration (MIC) values
Protocol: as §2, §3
Several compounds of the disclosure (Compounds 1, 2, 3, and 6) were further evaluated against a secondary panel of clinical isolates of multi-drug resistant bacterial pathogens including A. baumannii, methicillin-resistant Staphylococcus aureus (MRSA), P. aeruginosa, and carbapenem-resistant Enterobacteriaceae (CRE).

[9] = test system: all sets of organisms tested (SENTRY clinical isolates); experiment: Antibacterial surveillance, overall statement; conditions: all sets of organisms tested (Table 3); read-out: MIC50,90 values
Protocol: as §2, §3
as §4, with “The MIC values at which ≥50% (MIC50) and ≥90% (MIC90) of isolates within a given set are inhibited were determined for each compound against each set of organisms.” left out

NCC[C@H](O)C(=O)N[C@@H]1[C@@H](O)[C@H](N)[C@@H](O[C@H]2O[C@H](CN)CC[C@H]2N)[C@H](O[C@@H]2O[C@H](CO)[C@@H](O[C@H]3O[C@@H](CN)[C@@H](O)[C@H](O)[C@H]3N)[C@H]2O)[C@H]1O [Compound 2, (S)-4-amino-N-((1R,2S,3S,4R,5R,6S)-3-amino-5-(((2S,3R,4S,5R)-4-(((2R,3R,4R,5S,6S)-3-amino-6-(aminomethyl)-4,5-dihydroxytetrahydro-2H-pyran-2-yl)oxy)-3-hydroxy-5-(hydroxymethyl)tetrahydrofuran-2-yl)oxy)-4-(((2R,3R,6S)-3-amino-6-(aminomethyl)tetrahydro-2H-pyran-2-yl)oxy)-2,6-dihydroxycyclohexyl)-2-hydroxybutanamide]
MIC (A. baumannii; read-out: Activity (MIC), strain NABA0007, ΔadeJK efflux): < 16 mg/L
MIC (A. baumannii; read-out: Activity (MIC), strain NABA1427, MDR Clinical isolate): < 16 mg/L
MIC (A. baumannii; read-out: Activity (MIC), strain NABA1433, MDR Clinical isolate): < 16 mg/L
MIC (A. baumannii; read-out: Activity (MIC), strain NABA1434, MDR Clinical isolate): < 16 mg/L
MIC (A. baumannii; read-out: Activity (MIC), strain NABA1436, MDR Clinical isolate): < 16 mg/L
MIC (A. baumannii; read-out: Activity (MIC), strain NABA1437, MDR Clinical isolate): < 16 mg/L
MIC (A. baumannii; read-out: Activity (MIC), strain NABA1438, MDR Clinical isolate): < 16 mg/L
MIC (A. baumannii; read-out: Activity (MIC), strain NABA1439, MDR Clinical isolate): < 16 mg/L
MIC (A. baumannii; read-out: Activity (MIC), strain NABA1448, MDR Clinical isolate): < 16 mg/L
MIC (A. baumannii; read-out: Activity (MIC), strain NABA1449, MDR Clinical isolate): < 16 mg/L
MIC (A. baumannii; read-out: Activity (MIC), strain NABA1450, MDR Clinical isolate): < 16 mg/L
MIC (A. baumannii; strain NABA0006, WT parent, read-out: Activity (MIC)): < 16 mg/L
MIC (A. baumannii; strain NABA0020, AME negative strain, read-out: Activity (MIC)): < 16 mg/L
MIC (E. cloacae): < 16 mg/L
MIC (E. coli; read-out: Activity (MIC), strain AECO1225, MDR Clinical isolate (CDC CRE panel), CDC AR Bank 0118): < 16 mg/L
MIC (E. coli; read-out: Activity (MIC), strain AECO1226, MDR Clinical isolate (CDC CRE panel), CDC AR Bank 0119): < 16 mg/L
MIC (E. coli; read-out: Activity (MIC), strain AECO1227, MDR Clinical isolate (CDC CRE panel), CDC AR Bank 0128): < 16 mg/L
MIC (E. coli; read-out: Activity (MIC), strain NECO0003, ΔtolC): < 16 mg/L
MIC (E. coli; read-out: Activity (MIC), strain NECO0245, ArmA): < 16 mg/L
MIC (E. coli; strain NECO0001, WT QC, read-out: Activity (MIC)): < 16 mg/L
MIC (E. coli; strain NECO0002, WT, read-out: Activity (MIC)): < 16 mg/L
MIC (E. coli; strain NECO0243, empty vector, read-out: Activity (MIC)): < 16 mg/L
MIC (E. coli; strain NECO0244, AAC(6')-Ib, read-out: Activity (MIC)): < 16 mg/L
MIC (E. coli; strain NECO0289, APH(3')-Ia, read-out: Activity (MIC)): < 16 mg/L
MIC (E. coli; strain NECO0302, AAC(3)-IIa, read-out: Activity (MIC)): < 16 mg/L
MIC (E. coli; strain NECO0350, AAC(2')-I, read-out: Activity (MIC)): < 16 mg/L
MIC (E. coli; strain NECO0359, ANT(4')-Ia, read-out: Activity (MIC)): < 16 mg/L
MIC (K. aerogenes): < 16 mg/L
MIC (K. pneumoniae; Klebsiella pneumoniae, strain AKPN1246, MDR Clinical isolate (CDC CRE panel), CDC AR Bank 0139): < 16 mg/L
Activity (MIC) (K. pneumoniae; strain AKPN1250, MDR Clinical isolate (CDC CRE panel), CDC AR Bank 0143): + (MIC threshold for positive activity (+) is ≤16 μg/mL)
Activity (MIC) (K. pneumoniae; strain AKPN1253, MDR Clinical isolate (CDC CRE panel), CDC AR Bank 0148): + (MIC threshold for positive activity (+) is ≤16 μg/mL)
Activity (MIC) (K. pneumoniae; strain AKPN1255, MDR Clinical isolate (CDC CRE panel), CDC AR Bank 0153): + (MIC threshold for positive activity (+) is ≤16 μg/mL)
MIC (P. aeruginosa [1]; read-out: Activity (MIC), strain NPAE0006, Efflux KO, Aph(3')-IIb): < 16 mg/L
MIC (P. aeruginosa [1]; read-out: Activity (MIC), strain NPAE0010, MexXY over-expressed, Aph(3')-IIb): < 16 mg/L
MIC (P. aeruginosa [1]; read-out: Activity (MIC), strain NPAE1288, MDR Clinical isolate): < 16 mg/L
MIC (P. aeruginosa [1]; read-out: Activity (MIC), strain NPAE1293, MDR Clinical isolate): < 16 mg/L
MIC (P. aeruginosa [1]; read-out: Activity (MIC), strain NPAE1299, MDR Clinical isolate): < 16 mg/L
MIC (P. aeruginosa [1]; read-out: Activity (MIC), strain NPAE1302, MDR Clinical isolate): < 16 mg/L
MIC (P. aeruginosa [1]; read-out: Activity (MIC), strain NPAE1303, MDR Clinical isolate): < 16 mg/L
MIC (P. aeruginosa [1]; read-out: Activity (MIC), strain NPAE1308, MDR Clinical isolate): < 16 mg/L
MIC (P. aeruginosa [1]; read-out: Activity (MIC), strain NPAE1310, MDR Clinical isolate): < 16 mg/L
MIC (P. aeruginosa [1]; read-out: Activity (MIC), strain NPAE1313, MDR Clinical isolate): < 16 mg/L
MIC (P. aeruginosa [1]; read-out: Activity (MIC), strain NPAE1316, MDR Clinical isolate): < 16 mg/L
MIC (P. aeruginosa [1]; read-out: Activity (MIC), strain NPAE1323, MDR Clinical isolate): < 16 mg/L
MIC (P. aeruginosa [1]; strain NPAE0001, WT Aph(3')-IIb, QC, read-out: Activity (MIC)): < 16 mg/L
MIC (P. aeruginosa [1]; strain NPAE0002, WT Aph(3')-IIb, read-out: Activity (MIC)): < 16 mg/L
MIC (P. aeruginosa [1]; strain NPAE0359, aph(3')-IIb KO (tetR), read-out: Activity (MIC)): < 16 mg/L
MIC50 ([2]; read-out: MIC50): < 16 mg/L
MIC90 ([2]; read-out: MIC90): < 16 mg/L
MIC50 [3]: < 16 mg/L
MIC90 [3]: < 16 mg/L
MIC50 ([4]; read-out: MIC50): < 16 mg/L
MIC90 ([4]; read-out: MIC90): < 16 mg/L
MIC50 (Enterobacterales): < 16 mg/L
MIC90 (Enterobacterales): < 16 mg/L
MIC50 ([5]; read-out: MIC50): < 16 mg/L
MIC90 ([5]; read-out: MIC90): < 16 mg/L
MIC50 ([6]; read-out: MIC50): < 16 mg/L
MIC90 ([6]; read-out: MIC90): < 16 mg/L
MIC50 (P. aeruginosa [7]; read-out: MIC50): < 16 mg/L
MIC90 (P. aeruginosa [7]; read-out: MIC90): < 16 mg/L
MIC [8]: ≤ 16 mg/L
MIC50 [9]: ≤ 16 mg/L
